# Results taken from patent publication US7317107B2, “Imidazole 4-carboxamide compounds with adenosine deaminase inhibiting activity” (Astellas Pharma Inc., priority 2002, dated 2008).
# Counter-ions that a name gives are not always drawn.
# Target: T1, Human ADA (Homo sapiens, UniProt P00813)
# T1 construct: made in house
# T1 sequence (P00813 1-363): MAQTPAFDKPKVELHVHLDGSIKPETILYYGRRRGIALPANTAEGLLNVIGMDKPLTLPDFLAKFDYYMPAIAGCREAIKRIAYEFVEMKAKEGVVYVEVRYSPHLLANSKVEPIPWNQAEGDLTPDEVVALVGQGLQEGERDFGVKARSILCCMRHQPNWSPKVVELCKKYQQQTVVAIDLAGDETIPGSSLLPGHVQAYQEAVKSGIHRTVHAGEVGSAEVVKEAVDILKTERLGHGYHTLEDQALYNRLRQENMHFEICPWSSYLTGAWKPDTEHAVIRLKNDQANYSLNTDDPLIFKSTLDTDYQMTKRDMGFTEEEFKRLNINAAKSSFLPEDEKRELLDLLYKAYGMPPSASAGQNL
# Assay: Adenosine Deaminase (ADA) Enzyme Assay
# Assay type: biochemical
# Conditions: 0.16 μg/ml ADA, 0.1 mM adenosine, 10 mM phosphate buffer saline pH 7.4, room temperature, decrease in A265 for 3 minutes
# Protocol: Adenosine Deaminase (ADA) Enzyme Assay
# • 1-{(3R,4S)-4-Hydroxy-1-[2-(4-ethoxyphenyl)-4-benzoxazolyl]-3-pentyl}-imidazole-4-carboxamide hydrochloride (E0023) • 1-{(3R,4S)-4-Hydroxy-1-[2-(2-thienyl)-7-benzoxazolyl]-3-pentyl}-imidazole-4-carboxamide hydrochloride (E0028) Test Method:
# The reaction velocity (V) is measured by a change in absorbance at 265 nm (A265) resulting from the deamination of adenosine. Human ADA was expressed and purified from ADA-deficient bacterial strain. Reaction mixtures of a total volume of 200 μl contained 0.16 μg/ml of ADA and 0.1 mM of adenosine and test compound in 10 mM phosphate buffer saline (pH 7.4). The reaction was started by addition of ADA to a mixture of adenosine and test compound. The reaction was followed at room temperature by recording decrease in A265 for 3 minutes in SPECTRAmax 250 (Molecular Devices, USA) to automatically calculate Vmax. Inhibitory potency of test compound was expressed as IC50 value, the drug concentration required to produce 50% inhibition of Vmax in comparison to vehicle treatment.
row,IC50,SMILES
1,< 20 nM,"CCOc1ccc(-c2nc3c(CC[C@H]([C@H](C)O)n4cnc(C(N)=O)c4)cccc3o2)cc1 [Compound E0023, 1-{(3R,4S)-4-Hydroxy-1-[2-(4-ethoxyphenyl)-4-benzoxazolyl]-3-pentyl}imidazole-4-carboxamide hydrochloride]"
2,< 20 nM,"C[C@H](O)[C@@H](CCc1cccc2nc(-c3cccs3)oc12)n1cnc(C(N)=O)c1 [Compound E0028, 1-{(3R,4S)-4-Hydroxy-1-[2-(2-thienyl)-7-benzoxazolyl]-3-pentyl}imidazole-4-carboxamide hydrochloride]"
